Read-outs that look alike come from different tables or passages of the source.
Legend:
MOLM14 cells = assay: Cell viability assay (CellTiter-Glo luminescence); format: cell-based; conditions: Homo sapiens; for viability at 0.0390625 µM: MOLM-14, read-out: relative cell viability (Fig 6e), replicates, MOLM14, Con. 0.0390625 μM, fraction of 0 μM control; for viability at 0.15625 µM: MOLM-14, read-out: relative cell viability (Fig 6e), replicates, MOLM14, Con. 0.15625 μM, fraction of 0 μM control; for viability at 0.625 µM: MOLM-14, read-out: relative cell viability (Fig 6e), replicates, MOLM14, Con. 0.625 μM, fraction of 0 μM control; for viability at 10 µM: MOLM-14, read-out: relative cell viability (Fig 6e), replicates, MOLM14, Con. 10 μM, fraction of 0 μM control
Method: (§1) 5000 cells as indicated were cultured in 96-well plate with 100 μl of media. […] After treatment, the cells were incubated with 100 μl buffer for 10 min at room temperature following the instructions of CellTiter-Glo kit (Promega, Madison, WI). Luminescence was detected using a multi-mode reader Cytation 5 (BioTek, Winooski, VT). […] Two independent experiments done in duplicates were performed.

[1] = Cytotoxicity, cell viability assay in normal cells; format: cell-based, human; conditions: human, PBMC, fraction of 0 μM control, read-out: relative cell viability (Fig 6a), replicates; for viability at 0.000244141 μM: Con. 0.000244141 μM; for viability at 0.00390625 μM: Con. 0.00390625 μM; for viability at 0.015625 μM: Con. 0.015625 μM; for viability at 0.0625 μM: Con. 0.0625 μM; for viability at 1 μM: Con. 1 μM
Source text: (§2) Human peripheral blood mononuclear cells (PBMCs), normal T-cells and B-cells were provided by the University of Pennsylvania Human Immunology Core (HIC), and Patient-derived xenografts (PDXs) were obtained from Fox Chase Cancer Center (FCCC). These samples were from different unidentified and healthy donors with written, informed consent. All the procedures were approved by the Institutional Review Board (IRB) and conducted according to the declarations of Helsinki protocols.
as §1

[2] = Cytotoxicity, cell viability assay in normal cells; format: cell-based; conditions: human, fraction of 0 μM control; for viability at 0.000244141 μM: Con. 0.000244141 μM; for viability at 0.00390625 μM: Con. 0.00390625 μM; for viability at 0.015625 μM: Con. 0.015625 μM; for viability at 0.0625 μM: Con. 0.0625 μM; for viability at 1 μM: Con. 1 μM
Source text: as §2, §1

Raji cells = assay: Cell viability assay (CellTiter-Glo luminescence); format: cell-based, human; conditions: Homo sapiens; for viability at 0.00244141 µM: read-out: relative cell viability (Fig 6f), replicates, Raji, Con. 0.00244141 μM, fraction of 0 μM control; for viability at 0.0390625 µM: read-out: relative cell viability (Fig 6f), replicates, Raji, Con. 0.0390625 μM, fraction of 0 μM control; for viability at 0.15625 µM: read-out: relative cell viability (Fig 6f), replicates, Raji, Con. 0.15625 μM, fraction of 0 μM control; for viability at 0.625 µM: read-out: relative cell viability (Fig 6f), replicates, Raji, Con. 0.625 μM, fraction of 0 μM control; for viability at 10 µM: read-out: relative cell viability (Fig 6f), replicates, Raji, Con. 10 μM, fraction of 0 μM control
Method: as §1

SU-DHL-4 cells = assay: Cell viability assay (CellTiter-Glo luminescence); format: cell-based, human; conditions: Homo sapiens, SU-DHL-4, 144 h; for viability at 0.00244141 µM: read-out: relative cell viability (Fig 6d), replicates, SU-DHL-4, Con. 0.00244141 μM, fraction of 0 μM control; for viability at 0.0390625 µM: read-out: relative cell viability (Fig 6d), replicates, SU-DHL-4, Con. 0.0390625 μM, fraction of 0 μM control; for viability at 0.15625 µM: read-out: relative cell viability (Fig 6d), replicates, SU-DHL-4, Con. 0.15625 μM, fraction of 0 μM control; for viability at 0.625 µM: read-out: relative cell viability (Fig 6d), replicates, SU-DHL-4, Con. 0.625 μM, fraction of 0 μM control; for viability at 10 µM: read-out: relative cell viability (Fig 6d), replicates, SU-DHL-4, Con. 10 μM, fraction of 0 μM control
Method: as §1

[3] = normal B-cells from healthy donors, B-cells, read-out: relative cell viability (Fig 6c), replicates
[4] = normal T-cells from healthy donors, T-cells, read-out: relative cell viability (Fig 6b), replicates

Row | SMILES | viability at 0.0390625 µM (MOLM14 cells) [%] | viability at 0.15625 µM (MOLM14 cells) [%] | viability at 0.625 µM (MOLM14 cells) [%] | viability at 10 µM (MOLM14 cells) [%] | viability at 0.000244141 μM [1] [%] | viability at 0.00390625 μM [1] [%] | viability at 0.015625 μM [1] [%] | viability at 0.0625 μM [1] [%] | viability at 1 μM [1] [%] | viability at 0.000244141 μM [2, 3] [%] | viability at 0.00390625 μM [2, 3] [%] | viability at 0.015625 μM [2, 3] [%] | viability at 0.0625 μM [2, 3] [%] | viability at 1 μM [2, 3] [%] | viability at 0.000244141 μM [2, 4] [%] | viability at 0.00390625 μM [2, 4] [%] | viability at 0.015625 μM [2, 4] [%] | viability at 0.0625 μM [2, 4] [%] | viability at 1 μM [2, 4] [%] | viability at 0.00244141 µM (Raji cells) [%] | other results
1 | COc1c(OCCCN2CCOCC2)ccc2c1N=C(NC(=O)c1cnc(N)nc1)N1CCN=C21 [Copanlisib] | 59 | 58.4 | 18.1 | 4.25 | 104 | 106 | 92.8 | 73 | 61.4 | 90.1 | 95.7 | 91.4 | 79.9 | 52.6 | 95.3 | 102 | 94.4 | 107 | 79.9 | 94.7 | viability at 0.00244141 µM (MOLM14 cells; MOLM-14, read-out: relative cell viability (Fig 6e), replicates, MOLM14, Con. 0.00244141 μM, fraction of 0 μM control): 89.1%; viability at 0.0390625 µM (Raji cells): 91.7%; viability at 0.15625 µM (Raji cells): 102%; viability at 0.625 µM (Raji cells): 67.9%; viability at 10 µM (Raji cells): 7.75%; viability at 0.00244141 µM (SU-DHL-4 cells): 122%; viability at 0.0390625 µM (SU-DHL-4 cells): 69%; viability at 0.15625 µM (SU-DHL-4 cells): 42.6%; viability at 0.625 µM (SU-DHL-4 cells): 12.3%; viability at 10 µM (SU-DHL-4 cells): 5.12%
2 | C[C@H](Nc1ncnc2nc[nH]c12)c1cc2cccc(Cl)c2c(=O)n1-c1ccccc1 [Duvelisib] | 122 | 109 | 125 | 24.1 | 103 | 94.6 | 101 | 92.6 | 80.3 | 94.3 | 103 | 80.4 | 104 | 72.7 | 108 | 100 | 99.3 | 102 | 93.2 | 94.9 | viability at […] (MOLM14 cells; MOLM-14, read-out: relative cell viability (Fig 6e), replicates, MOLM14, Con. […], fraction of 0 μM control): 106%; viability at […] ([2]; normal T-cells from healthy donors, T-cells, Con. […], read-out: relative cell viability (Fig 6b), replicates): 103%; viability at 0.0390625 µM (Raji cells): 112%; viability at 0.15625 µM (Raji cells): 94.1%; viability at 0.625 µM (Raji cells): 99.1%; viability at 10 µM (Raji cells): 64.1%; viability at […] (Raji cells; read-out: relative cell viability (Fig 6f), replicates, Raji, Con. […], fraction of 0 μM control): 104%; viability at 0.00244141 µM (SU-DHL-4 cells): 103%; viability at 0.0390625 µM (SU-DHL-4 cells): 99.8%; viability at 0.15625 µM (SU-DHL-4 cells): 85.8%; viability at 0.625 µM (SU-DHL-4 cells): 75.1%; viability at 10 µM (SU-DHL-4 cells): 27.4%
